Values joined by “and” are separate entries in the source; they are usually repeats but may differ in a detail not shown here. Equal entries are not always repeated.
Assay type: in vivo, NIH/Swiss mice
Conditions: 30 nmol/kg

SMILES	OGTT/GL (%)
CC[C@H](C)[C@H](NC(=O)[C@H](CO)NC(=O)[C@H](Cc1ccc(O)cc1)NC(=O)[C@H](CC(=O)O)NC(=O)[C@H](CO)NC(=O)[C@@H](NC(=O)[C@H](Cc1ccccc1)NC(=O)[C@@H](NC(=O)CNC(=O)[C@H](CCC(=O)O)NC(=O)[C@H](C)NC(=O)[C@@H](N)Cc1ccc(O)cc1)[C@@H](C)O)[C@@H](C)CC)C(=O)N[C@@H](C)C(=O)N[C@@H](CCSC)C(=O)N[C@@H](CC(=O)O)C(=O)N[C@@H](CCCCN)C(=O)N[C@H](C(=O)N[C@@H](Cc1c[nH]cn1)C(=O)N[C@@H](CCC(N)=O)C(=O)N[C@@H](CCC(N)=O)C(=O)N[C@@H](CC(=O)O)C(=O)N[C@@H](Cc1ccccc1)C(=O)N[C@H](C(=O)N[C@@H](CC(N)=O)C(=O)N[C@@H](Cc1c[nH]c2ccccc12)C(=O)N[C@@H](CC(C)C)C(=O)N[C@@H](CC(C)C)C(=O)N[C@@H](C)C(=O)N[C@@H](CCC(N)=O)C(=O)N[C@@H](CCCCN)C(=O)N1CCC[C@H]1C(=O)N[C@@H](CCCCN)C(=O)N[C@@H](CCCCN)C(=O)N[C@H](C(=O)N[C@@H](CCCNC(=N)N)C(=O)N[C@@H](Cc1ccc(O)cc1)C(=O)N[C@@H](CO)C(N)=O)[C@@H](C)CC)C(C)C)[C@@H](C)CC [0601GIP4327]	−7, 30%
CC[C@H](C)[C@H](NC(=O)[C@H](CO)NC(=O)[C@H](Cc1ccc(O)cc1)NC(=O)[C@H](CC(=O)O)NC(=O)[C@H](CO)NC(=O)[C@@H](NC(=O)[C@H](Cc1ccccc1)NC(=O)[C@@H](NC(=O)CNC(=O)[C@H](CCC(=O)O)NC(=O)[C@H](C)NC(=O)[C@@H](N)Cc1ccc(O)cc1)[C@@H](C)O)[C@@H](C)CC)C(=O)N[C@@H](C)C(=O)N[C@@H](CCSC)C(=O)N[C@@H](CC(=O)O)C(=O)N[C@@H](CCCCN)C(=O)N[C@H](C(=O)N[C@@H](Cc1c[nH]cn1)C(=O)N[C@@H](CCC(N)=O)C(=O)N[C@@H](CCC(N)=O)C(=O)N[C@@H](CC(=O)O)C(=O)N[C@@H](Cc1ccccc1)C(=O)N[C@H](C(=O)N[C@@H](CC(N)=O)C(=O)N[C@@H](Cc1c[nH]c2ccccc12)C(=O)N[C@@H](CC(C)C)C(=O)N[C@@H](CC(C)C)C(=O)N[C@@H](C)C(=O)N[C@@H](CCC(N)=O)C(=O)N[C@@H](CCCCN)C(=O)N[C@H](C(=O)N[C@@H](CO)C(=O)N1CCC[C@H]1C(=O)N[C@@H](CCCNC(=N)N)C(=O)N1CCC[C@H]1C(=O)N1CCC[C@H]1C(=O)N[C@@H](CO)C(N)=O)[C@@H](C)O)C(C)C)[C@@H](C)CC [0601GIP4328]	−2, 30%
CC[C@H](C)[C@H](NC(=O)[C@H](CO)NC(=O)[C@H](Cc1ccc(O)cc1)NC(=O)[C@H](CC(=O)O)NC(=O)[C@H](CO)NC(=O)[C@@H](NC(=O)[C@H](Cc1ccccc1)NC(=O)[C@@H](NC(=O)CNC(=O)[C@H](CCC(=O)O)NC(=O)[C@H](C)NC(=O)[C@@H](N)Cc1ccc(O)cc1)[C@@H](C)O)[C@@H](C)CC)C(=O)N[C@@H](C)C(=O)N[C@@H](CCSC)C(=O)N[C@@H](CC(=O)O)C(=O)N[C@@H](CCCCN)C(=O)N[C@H](C(=O)N[C@@H](Cc1c[nH]cn1)C(=O)N[C@@H](CCC(N)=O)C(=O)N[C@@H](CCC(N)=O)C(=O)N[C@@H](CC(=O)O)C(=O)N[C@@H](Cc1ccccc1)C(=O)N[C@H](C(=O)N[C@@H](CC(N)=O)C(=O)N[C@@H](Cc1c[nH]c2ccccc12)C(=O)N[C@@H](CC(C)C)C(=O)N[C@@H](CC(C)C)C(=O)N[C@@H](C)C(=O)N[C@@H](CCC(N)=O)C(=O)N[C@@H](CCCCN)C(=O)N[C@H](C(=O)N[C@@H](CO)C(=O)N1CCC[C@H]1C(=O)N[C@@H](CCCNC(=N)N)C(=O)N1CCC[C@H]1C(=O)N1CCC[C@H]1C(=O)N[C@@H](CO)C(=O)N[C@@H](CO)C(N)=O)[C@@H](C)O)C(C)C)[C@@H](C)CC [0601GIP4401]	1, 30%
CC[C@H](C)[C@H](NC(=O)[C@H](CO)NC(=O)[C@H](Cc1ccc(O)cc1)NC(=O)[C@H](CC(=O)O)NC(=O)[C@H](CO)NC(=O)[C@@H](NC(=O)[C@H](Cc1ccccc1)NC(=O)[C@@H](NC(=O)CNC(=O)[C@H](CCC(=O)O)NC(=O)CCNC(=O)[C@@H](N)Cc1ccc(O)cc1)[C@@H](C)O)[C@@H](C)CC)C(=O)N[C@@H](C)C(=O)N[C@@H](CCSC)C(=O)N[C@@H](CC(=O)O)C(=O)N[C@@H](CCCCN)C(=O)N[C@H](C(=O)N[C@@H](Cc1c[nH]cn1)C(=O)N[C@@H](CCC(N)=O)C(=O)N[C@@H](CCC(N)=O)C(=O)N[C@@H](CC(=O)O)C(=O)N[C@@H](Cc1ccccc1)C(=O)N[C@H](C(=O)N[C@@H](CC(N)=O)C(=O)N[C@@H](Cc1c[nH]c2ccccc12)C(=O)N[C@@H](CC(C)C)C(=O)N[C@@H](CC(C)C)C(=O)N[C@@H](C)C(=O)N[C@@H](CCC(N)=O)C(=O)N[C@@H](CCCCN)C(=O)N1CCC[C@H]1C(=O)N[C@@H](CO)C(=O)N[C@@H](CO)C(=O)NCC(=O)N[C@@H](C)C(=O)N1CCC[C@H]1C(=O)N1CCC[C@H]1C(=O)N1CCC[C@H]1C(=O)N[C@@H](CO)C(N)=O)C(C)C)[C@@H](C)CC [0601GIP4458]	−14, 30%
CC[C@H](C)[C@H](NC(=O)[C@H](CO)NC(=O)[C@H](Cc1ccc(O)cc1)NC(=O)[C@H](CC(=O)O)NC(=O)[C@H](CO)NC(=O)[C@@H](NC(=O)[C@H](Cc1ccccc1)NC(=O)[C@@H](NC(=O)CNC(=O)[C@H](CCC(=O)O)NC(=O)[C@@H](CCC(=O)O)NC(=O)[C@@H](N)Cc1ccc(O)cc1)[C@@H](C)O)[C@@H](C)CC)C(=O)N[C@@H](C)C(=O)N[C@@H](CCSC)C(=O)N[C@@H](CC(=O)O)C(=O)N[C@@H](CCCCN)C(=O)N[C@H](C(=O)N[C@@H](Cc1c[nH]cn1)C(=O)N[C@@H](CCC(N)=O)C(=O)N[C@@H](CCC(N)=O)C(=O)N[C@@H](CC(=O)O)C(=O)N[C@@H](Cc1ccccc1)C(=O)N[C@H](C(=O)N[C@@H](CC(N)=O)C(=O)N[C@@H](Cc1c[nH]c2ccccc12)C(=O)N[C@@H](CC(C)C)C(=O)N[C@@H](CC(C)C)C(=O)N[C@@H](C)C(=O)N[C@@H](CCC(N)=O)C(=O)N[C@@H](CCCCN)C(=O)N1CCC[C@H]1C(=O)N[C@@H](CO)C(=O)N[C@@H](CO)C(=O)NCC(=O)N[C@@H](C)C(=O)N1CCC[C@H]1C(=O)N1CCC[C@H]1C(=O)N1CCC[C@H]1C(=O)N[C@@H](CO)C(N)=O)C(C)C)[C@@H](C)CC [0601GIP4703]	−18, 30%
CC[C@H](C)[C@H](NC(=O)[C@H](CO)NC(=O)[C@H](Cc1ccc(O)cc1)NC(=O)[C@H](CC(=O)O)NC(=O)[C@H](CO)NC(=O)[C@@H](NC(=O)[C@H](Cc1ccccc1)NC(=O)[C@@H](NC(=O)CNC(=O)[C@H](CCC(=O)O)NC(=O)[C@H](C)NC(=O)[C@H](Cc1ccc(O)cc1)NC(=O)[C@@H](N)CC(C)C)[C@@H](C)O)[C@@H](C)CC)C(=O)N[C@@H](C)C(=O)N[C@@H](CCSC)C(=O)N[C@@H](CC(=O)O)C(=O)N[C@@H](CCCCN)C(=O)N[C@H](C(=O)N[C@@H](Cc1c[nH]cn1)C(=O)N[C@@H](CCC(N)=O)C(=O)N[C@@H](CCC(N)=O)C(=O)N[C@@H](CC(=O)O)C(=O)N[C@@H](Cc1ccccc1)C(=O)N[C@H](C(=O)N[C@@H](CC(N)=O)C(=O)N[C@@H](Cc1c[nH]c2ccccc12)C(=O)N[C@@H](CC(C)C)C(=O)N[C@@H](CC(C)C)C(=O)N[C@@H](C)C(=O)N[C@@H](CCC(N)=O)C(=O)N[C@@H](CCCCN)C(=O)N1CCC[C@H]1C(=O)N[C@@H](CCCCN)C(=O)N[C@@H](CCCCN)C(=O)N[C@H](C(=O)N[C@@H](CCCNC(=N)N)C(=O)N[C@@H](Cc1ccc(O)cc1)C(=O)N[C@@H](CO)C(N)=O)[C@@H](C)CC)C(C)C)[C@@H](C)CC [0601GIP4799]	−10, % and −10, 30%
CC[C@H](C)[C@H](NC(=O)[C@H](CO)NC(=O)[C@H](Cc1ccc(O)cc1)NC(=O)[C@H](CC(=O)O)NC(=O)[C@H](CO)NC(=O)[C@@H](NC(=O)[C@H](Cc1ccccc1)NC(=O)[C@@H](NC(=O)CNC(=O)[C@H](CCC(=O)O)NC(=O)[C@@H](C)NC(=O)[C@H](Cc1ccc(O)cc1)NC(=O)OCC(C)C)[C@@H](C)O)[C@@H](C)CC)C(=O)N[C@@H](C)C(=O)N[C@@H](CCSC)C(=O)N[C@@H](CC(=O)O)C(=O)N[C@@H](CCCCN)C(=O)N[C@H](C(=O)N[C@@H](Cc1c[nH]cn1)C(=O)N[C@@H](CCC(N)=O)C(=O)N[C@@H](CCC(N)=O)C(=O)N[C@@H](CC(=O)O)C(=O)N[C@@H](Cc1ccccc1)C(=O)N[C@H](C(=O)N[C@@H](CC(N)=O)C(=O)N[C@@H](Cc1c[nH]c2ccccc12)C(=O)N[C@@H](CC(C)C)C(=O)N[C@@H](CC(C)C)C(=O)N[C@@H](C)C(=O)N[C@@H](CCC(N)=O)C(=O)N[C@@H](CCCCN)C(=O)N1CCC[C@H]1C(=O)N[C@@H](CO)C(=O)N[C@@H](CO)C(=O)NCC(=O)N[C@@H](C)C(=O)N1CCC[C@H]1C(=O)N1CCC[C@H]1C(=O)N1CCC[C@H]1C(=O)N[C@@H](CO)C(N)=O)C(C)C)[C@@H](C)CC [Compound 0601GIP4180]	−11, 30%

Same assay, conditions: 350 nmol/kg

SMILES	OGTT/GL (%)
CC[C@H](C)[C@H](NC(=O)[C@H](CCCCN)NC(=O)[C@H](CC(=O)O)NC(=O)[C@H](CCSC)NC(=O)[C@@H](NC(=O)[C@@H](NC(=O)[C@H](CO)NC(=O)[C@H](Cc1ccc(O)cc1)NC(=O)[C@H](CC(=O)O)NC(=O)[C@H](CO)NC(=O)[C@@H](NC(=O)[C@H](Cc1ccccc1)NC(=O)[C@@H](NC(=O)CNC(=O)[C@H](CCC(=O)O)NC(=O)[C@@H](C)NC(=O)[C@@H](N)Cc1ccc(O)cc1)[C@@H](C)O)[C@@H](C)CC)[C@@H](C)CC)[C@@H](C)O)C(=O)N[C@@H](Cc1c[nH]cn1)C(=O)N[C@@H](CCC(N)=O)C(=O)N[C@@H](CCC(N)=O)C(=O)N[C@@H](CC(=O)O)C(=O)N[C@@H](Cc1ccccc1)C(=O)N[C@H](C(=O)N[C@@H](CC(N)=O)C(=O)N[C@@H](Cc1c[nH]c2ccccc12)C(=O)N[C@@H](CC(C)C)C(=O)N[C@@H](CC(C)C)C(=O)N[C@@H](C)C(=O)N[C@@H](CCC(N)=O)C(=O)N[C@@H](CCCCN)C(=O)N1CCC[C@H]1C(=O)N[C@@H](CO)C(=O)N[C@@H](CO)C(=O)NCC(=O)N[C@@H](C)C(=O)N1CCC[C@H]1C(=O)N1CCC[C@H]1C(=O)N1CCC[C@H]1C(=O)N[C@@H](CO)C(N)=O)C(C)C [Compound 0601GIP4213]	−17

— patent US8497240B2 (priority 2006, dated 2013)
